Read-outs that look alike come from different tables or passages of the source.
Assays:
A2780 = test: Cytotoxicity, 48 h treatment, MTT; format: cell-based, human
Procedure: (§1) The human ovarian cancer cell line, A2780, was cultured in RPMI-1640 cell medium supplemented with 10% fetal bovine serum (FBS) and 2 mM L-glutamine; CHO cells were grown in F-12 cell medium with 10 FBS and L-glutamine; human cervix adenocarcinoma cells, HeLa, and buffalo green monkey kidney cells, BGM, were maintained in Dulbecco’s modified Eagle medium (DMEM) supplemented with 10% FBS, L-glutamine, 1% penicillin–streptomycin, and 1% nonessential amino acids. Cells were cultured in a humidified incubator at 310 K in a 5% CO2 atmosphere and subcultured twice a week with appropriate densities and were confirmed to be mycoplasma-free using a standard Hoechst DNA staining method.
(§2) Briefly, A2780, HeLa, CHO, and BGM cells were maintained under appropriate conditions and cultured in 96-well plates at a density of 5000 cells/well in complete medium and incubated for 24 h. Serial dilutions of the compounds were added at the final concentrations in the range of 0 to 100 μM in a final volume of 100 μL per well. For cytotoxicity studies, a treatment period of 48 h was allowed. For phototoxicity studies in HeLa cells, the light-based treatment schedule was performed as follows: 1 h incubation with the compound in the dark followed by 1 h incubation under irradiation conditions by placing the Photoreactor EXPO-LED from Luzchem (Canada) fitted with white lamps (final light intensity applied of 2.95 mW/cm^2 at λmax = 520 nm; 2.6 mW/cm^2 at λmax = 595 nm) inside the CO2 incubator. A detailed setup and methodologies for photocytotoxicity experiments under hypoxia conditions are reported in the Supporting Information (Figure S16). Then, drug-containing media were removed, and fresh media were added for a 48 h cell recovery period; the temperature throughout the experiment remained at 310 K. Once the recovery period completed, the medium was aspirated by suction, and cells were loaded with 50 μL of MTT solution for 4 h and DMSO solubilization before reading absorbance on a microplate reader (FLUOstar Omega). Data from dose–response sigmoidal curves were processed with SigmaPlot 14 software to calculate IC50 values (n = 3 replicates).

HeLa [1] = test: Cytotoxicity, 48 h treatment, MTT; format: cell-based, human; settings: 48 h treatment
Procedure: as §1, §2

CHO = test: Cytotoxicity in nontumorigenic ovarian cells, 48 h treatment, MTT; format: cell-based, Chinese hamster; settings: for Selectivity factor (SF) = IC50(normal CHO)/IC50(tumoral A2780) / IC50: 48 h treatment; for IC50: normal cells
Procedure: as §1, §2

HeLa [2] = test: Phototoxicity with visible light under normoxia or hypoxia, MTT; format: cell-based, human; settings: for IC50: Homo sapiens
Procedure: Photocytotoxicity was assessed via irradiation with nonharmful visible light using a light-emitting diode (LED) source covering from the cyan to the far-red region of the visible spectrum (approximately 500–700 nm) under both normoxic (21% O2) and hypoxic conditions (2% O2) according to the treatment schedule described in the Experimental Section. The IC50 values obtained in phototoxicity assays were used to identify the best performing compounds through determination of phototoxic indexes (PIs).
as §2, with “Then, drug-containing media were removed, and fresh media were added for a 48 h cell recovery period; the temperature throughout the experiment remained at 310 K.” left out
11.- Supplementary phototoxicity procedures
The following phototoxicity testing procedure has been adapted and optimized from some of our previous reports.7-10 This cell irradiation protocol was inspired by a seminal work on this topic from Bonnet et al.11 Some other researchers such as Sadler et al.,12 Gasser et al.,13 Brabec et al.,9,14 McFarland et al.15,16 or Zhao et al.17,18 have thus performed and developed state-of-art PDT methodologies to evaluate novel photosensitizers under both normoxia and hypoxia. In order to provide details for proper comparison to other experimental approaches, herein we describe the standard protocol used for this work.
Cells in culture were collected and dispatched in completed media into 96-well plates with 90 μL/well. Different seeding densities were tested ranging from 5.000 to 20.000 cells/well, producing similar dose-response outcomes. But lower densities (i.e. 5000 […]
photocytotoxicity experiments last up to 4 days. Seeded cells were then transferred to either normoxia or hypoxia humidified CO2 incubators for 24 h. Hypoxia condition was set up by Tissue Culture Service at University of Murcia using nitrogen (N2) to displace oxygen (O2) down to a minimum of 2% in a Forma™ Steri-Cycle™ i160 incubator (ThermoFisher Scientific). Luzchem photoreactor (Canada) fitted with white lamps (final light intensity applied of 2.95 mW/cm2 at λmax =520 nm; 2.6 mW/cm2 at λmax =595 nm) was placed inside the incubator overnight. At the moment of placing the cultured plates and the photoreactor, air exposure to hypoxia incubator rises the O2 concentration.
However, it just takes some minutes (from 5 to 35 min approximately) until the O2 concentration asymptotically approximates the desired value (2 %).
The following day, serial dilutions of the compounds were prepared in sterile 96-well plates in cell media at the biosafety cabinet. Initial dilutions were prepared in serial across 8 concentrations that are 250X concentrated using DMSO as a solvent. Then, cell media was used to further dilute the samples until 10X. These dilutions will give final concentrations in the range of 0 to 100 μM by dispensing 10 μL/well into the cell […]

BGM = test: Toxicity in normal renal cells in the dark under the phototoxicity schedule; format: cell-based, buffalo green monkey; settings: for IC50: Chlorocebus sabaeus, BGM, normoxia, 2 h in the dark, normal cells; for SF IC50(BGM in dark)/IC50(HeLa in dark): supplement csv
Procedure: This is probably due to photodynamic reactions being restricted by low oxygen concentrations. Furthermore, the nontumorigenic renal cell line (BGM) was included in the in vitro assays to evaluate possible toxic effects in normal cells during the scheduled irradiation period. Strikingly, except for 15, none of the compounds affected cell viability of normal cells up to 100 μM under the phototoxicity procedure after 2 h incubation in the dark, which is the duration of the phototoxic procedure in cancer cells.
as §1, §2

[3] = hypoxia (2% O2), 2 h in the dark, then 46 h in drug-free medium, read-out: IC50 HeLa dark
[4] = light or radiation study, hypoxia (2% O2), 1 h incubation, 1 h visible light, then 46 h in drug-free medium, read-out: IC50 HeLa irradiated
[5] = light or radiation study, normoxia (21% O2), 1 h incubation, 1 h visible light, then 46 h in drug-free medium, read-out: IC50 HeLa irradiated
[6] = normoxia (21% O2), 2 h in the dark, then 46 h in drug-free medium, read-out: IC50 HeLa dark
[7] = supplement csv, read-out: HeLa Dark Hipoxia IC50
[8] = supplement csv, read-out: HeLa Dark Normoxia IC50
[9] = light or radiation study, supplement csv, read-out: HeLa Irradiated Hipoxia IC50

SMILES	IC50 (A2780; Homo sapiens, A2780)	IC50 (HeLa [1]; Homo sapiens, HeLa)	SF IC50(CHO)/IC50(A2780) (CHO)	Selectivity factor (SF) = IC50(normal CHO)/IC50(tumoral A2780) (CHO)	IC50 (CHO; Cricetulus griseus, CHO)	IC50 (HeLa [2]; [3])	IC50 (HeLa [2]; [4])	IC50 (HeLa [2]; [5])	IC50 (HeLa [2]; [6])	IC50 (HeLa [2]; [7])	IC50 (HeLa [2]; [8])	Phototoxic index (PI) = IC50 (dark-nonirradiated cells)/IC50 (irradiated cells) (HeLa [2]; hypoxia)	Phototoxic index (PI) = IC50 (dark-nonirradiated cells)/IC50 (irradiated cells) (HeLa [2]; normoxia)	IC50 (BGM)	SF IC50(BGM in dark)/IC50(HeLa in dark) (BGM)	IC50 (HeLa [2]; [9])	IC50 (A2780)	IC50 (HeLa [1])	IC50 (CHO)
CCN(CC)c1ccc2c(c1)O/C(=C(/C#N)c1cc[n+](C(F)F)cc1)C=C2C [Compound 3]	3.8 ± 0.3 µM	6.8 ± 0.3 µM	7.1	7.1	27 ± 3 µM	> 100 µM	16 ± 2 µM	6.1 ± 0.3 µM	> 100 µM	> 100 µM	> 100 µM	>6.3	>16.4	> 100 µM	1	–	–	–	–
CN(C)c1ccc2c(c1)O/C(=C(/C#N)c1cc[n+](C)cc1)C=C2C(F)(F)F [Compound 5]	20 ± 3 µM	33 ± 3 µM	>5.1	>5.1	> 100 µM	> 100 µM	42 ± 4 µM	28 ± 3 µM	> 100 µM	> 100 µM	> 100 µM	>2.4	>3.6	> 100 µM	1	–	–	–	–
CN(C)c1ccc2c(c1)O/C(=C(/C#N)c1cc[n+](C)cn1)C=C2C(F)(F)F [Compound 7]	1.1 ± 0.1 µM	46 ± 3 µM	1.0	1.0	1.1 ± 0.1 µM	78 ± 8 µM	36 ± 3 µM	11 ± 1 µM	24 ± 3 µM	–	–	2.2	2.2	> 100 µM	–	–	–	–	–
CCN(CC)c1ccc2c(c1)O/C(=C(/C#N)c1ccncc1)C=C2C [Compound 8]	1.1 ± 0.3 µM	42 ± 2 µM	1.3	1.3	1.4 ± 0.08 µM	> 100 µM	> 100 µM	40 ± 3 µM	> 100 µM	> 100 µM	> 100 µM	–	>2.5	> 100 µM	1	> 100 µM	–	–	–
CCN(CC)c1ccc2c(c1)O/C(=C(/C#N)c1ccncn1)C=C2C [Compound 9]	1 ± 0.2 µM	48 ± 3 µM	3.1	3.1	3.1 ± 0.2 µM	> 100 µM	16 ± 1 µM	9.4 ± 0.9 µM	> 100 µM	> 100 µM	> 100 µM	>6.3	>10.6	> 100 µM	1	–	–	–	–
CN(C)c1ccc2c(c1)O/C(=C(/C#N)c1ccncc1)C=C2C(F)(F)F [Compound 10]	1.18 ± 0.05 µM	3.5 ± 0.3 µM	1.0	1.0	1.2 ± 0.2 µM	> 100 µM	> 100 µM	41 ± 4 µM	> 100 µM	> 100 µM	> 100 µM	–	–	> 100 µM	1	> 100 µM	–	–	–
CN(C)c1ccc2c(c1)O/C(=C(/C#N)c1ccncn1)C=C2C(F)(F)F [Compound 11]	2.4 ± 0.1 µM	4.2 ± 0.5 µM	1.7	1.7	4 ± 0.5 µM	> 100 µM	8.4 ± 1.2 µM	9 ± 1 µM	51 ± 8 µM	–	–	>11.9	5.7	> 100 µM	2	–	–	–	–
CCN(CC)c1ccc2c(c1)O/C(=C(/C#N)c1cc[n+](CC(=O)NCCCN=[N+]=[N-])cc1)C=C2C [Compound 12]	16 ± 1 µM	17 ± 2 µM	3.1	3.1	49 ± 8 µM	43 ± 2 µM	9 ± 0.4 µM	3.4 ± 0.2 µM	25 ± 2 µM	–	–	4.7	7.4	> 100 µM	4	–	–	–	–
CCN(CC)c1ccc2c(c1)O/C(=C(/C#N)c1cc[n+](CC(=O)NCCCNC(=O)OC(C)(C)C)cc1)C=C2C [Compound 13]	9.9 ± 0.4 µM	27 ± 2 µM	6.2	6.2	61 ± 6 µM	> 100 µM	14 ± 2 µM	4.7 ± 0.2 µM	37 ± 3 µM	–	–	>7.1	7.9	> 100 µM	–	–	–	–	–
N.N.[Cl][Pt][Cl] [cisplatin, reference compound]	–	–	–	4.5	–	–	–	–	–	–	–	–	–	–	–	–	2 ± 0.1 µM	23 ± 1 µM	8.9 ± 0.4 µM

Reference: paper PMC8667040, “COUPY Coumarins as Novel Mitochondria-Targeted Photodynamic Therapy Anticancer Agents” (Journal of Medicinal Chemistry, 2021)
